Results as given in patent US20200325177A1, “METHODS OF MAKING STREPTOGRAMIN COMPOSITIONS AND THE USE THEREOF” (THE REGENTS OF THE UNIVERSITY OF CALIFORNIA, priority 2017, published 2020).
≈ marks a conversion by molar mass, not a printed value. Where two headings read alike, the source gives them in different places.

Experiments:
Assay type in all cases: cell-based
P. aeruginosa ATCC 27853 = assay: MIC, Gram-negative bacteria: P. aeruginosa ATCC 27853; conditions: Pseudomonas aeruginosa, ATCC27853, read-out: Minimal Inhibitory Concentration (MIC) P. aeruginosa ATCC 27853
Gram-Negative Organisms = assay: microbe, parasite or virus in culture
[1] = system: S. aureus Vat A streptogramin; assay: MIC, Gram-positive bacteria: S. aureus Vat A streptogramin; conditions: Staphylococcus aureus; Gram-positive; column 5; read-out: Minimal Inhibitory Concentration (MIC) S. aureus Vat A streptogramin
[2] = system: K. pneumoniae multidrug-resistant; assay: MIC, Gram-negative bacteria: K. pneumoniae multidrug-resistant; conditions: Klebsiella pneumoniae, read-out: Minimal Inhibitory Concentration (MIC) K. pneumoniae multidrug-resistant
H. influenzae ATCC 49247 = assay: MIC, Gram-negative bacteria: H. influenzae ATCC 49247; conditions: Haemophilus influenzae, ATCC49247, read-out: Minimal Inhibitory Concentration (MIC) H. influenzae ATCC 49247
E. faecium ATCC 35667 = assay: MIC, Gram-positive bacteria: E. faecium ATCC 35667; conditions: Enterococcus faecium, ATCC35667, column 2, read-out: Minimal Inhibitory Concentration (MIC) E. faecium ATCC 35667
[3] = system: S. aureus Linezolid-resistant; cfr; assay: MIC, Gram-positive bacteria: S. aureus Linezolid-resistant; cfr; conditions: Staphylococcus aureus, column 9, read-out: Minimal Inhibitory Concentration (MIC) S. aureus Linezolid-resistant
S. aureus = assay: MIC, Gram-positive bacteria: S. aureus (strains not named); conditions: Staphylococcus aureus, read-out: Minimal Inhibitory Concentration (MIC) S. aureus
E. faecium VRE; vanA = assay: MIC, Gram-positive bacteria: E. faecium VRE; vanA; conditions: Enterococcus faecium, column 3, read-out: Minimal Inhibitory Concentration (MIC) E. faecium VRE
S. pneumoniae = assay: MIC, Gram-positive bacteria: S. pneumoniae; conditions: Streptococcus pneumoniae, column 10, read-out: Minimal Inhibitory Concentration (MIC) S. pneumoniae
E. faecalis = assay: MIC, Gram-positive bacteria: E. faecalis; conditions: Enterococcus faecalis, column 1, read-out: Minimal Inhibitory Concentration (MIC) E. faecalis
[4] = system: P. aeruginosa MDR clinical isolate; assay: MIC, Gram-negative bacteria: P. aeruginosa MDR clinical isolate; conditions: Pseudomonas aeruginosa, read-out: Minimal Inhibitory Concentration (MIC) P. aeruginosa MDR clinical isolate
[5] = Acinetobacter baumannii, ATCC19606, read-out: Minimal Inhibitory Concentration (MIC), A. baumannii ATCC 19606
[6] = Escherichia coli, ATCC25922, read-out: Minimal Inhibitory Concentration (MIC), E. coli ATCC 25922
[7] = Escherichia coli, read-out: Minimal Inhibitory Concentration (MIC), E. coli BAS2006, OMP C, OMP F
[8] = Escherichia coli, read-out: Minimal Inhibitory Concentration (MIC), E. coli olC efflux defective
[9] = Escherichia coli, read-out: Minimal Inhibitory Concentration (MIC), E. coli permeability mutant BAS1314, IMP4213ZAB::TN10
[10] = Klebsiella pneumoniae, ATCC43816, read-out: Minimal Inhibitory Concentration (MIC), K. pneumoniae ATCC 43816
[11] = first unnamed S. aureus column (c4)
[12] = fourth unnamed S. aureus column (c8)
[13] = second unnamed S. aureus column (c6)
[14] = third unnamed S. aureus column (c7)
[15] = Escherichia coli, read-out: Minimal Inhibitory Concentration (MIC), E. coli ΔompC768, KanR insert

Compound	MIC (P. aeruginosa ATCC 27853) [µg/mL]	MIC (Gram-Negative Organisms; [5]) [µg/mL]	MIC (Gram-Negative Organisms; [6]) [µg/mL]	MIC (Gram-Negative Organisms; [7]) [µg/mL]	MIC (Gram-Negative Organisms; [8]) [µg/mL]	MIC (Gram-Negative Organisms; [9]) [µg/mL]	MIC (Gram-Negative Organisms; [10]) [µg/mL]	MIC [1] [µg/mL]	MIC [2] [µg/mL]	MIC (H. influenzae ATCC 49247) [µg/mL]	MIC (E. faecium ATCC 35667) [µg/mL]	MIC [3] [µg/mL]	MIC (S. aureus; [11]) [µg/mL]	MIC (S. aureus; [12]) [µg/mL]	MIC (S. aureus; [13]) [µg/mL]	MIC (S. aureus; [14]) [µg/mL]	MIC (E. faecium VRE; vanA) [µg/mL]	MIC (S. pneumoniae) [µg/mL]	MIC (E. faecalis) [µg/mL]	MIC [4] [µg/mL]	also measured
CC1=C\[C@@H](O)CC(=O)Cc2nc(co2)C(=O)N2CCC[C@@H]2C(=O)O[C@H]([C@@H](C)COC(=O)Nc2ccc(C)cc2)[C@H](C)/C=C/C(=O)NC\C=C\1 [SA0110037]	> 64	> 64	> 64	16 (≈ 23.6 µM)	4 (≈ 5.91 µM)	8 (≈ 11.8 µM)	> 64	> 64	> 64	> 64	16 (≈ 23.6 µM)	> 64	32 (≈ 47.3 µM)	16 (≈ 23.6 µM)	32 (≈ 47.3 µM)	64 (≈ 94.6 µM)	64 (≈ 94.6 µM)	16 (≈ 23.6 µM)	> 64	> 64	–
CC1=C\[C@@H](O)CC(=O)Cc2nc(co2)C(=O)N2CCC[C@@H]2C(=O)O[C@H]([C@H](C)COC(=O)Nc2cc(C)on2)[C@H](C)/C=C/C(=O)NC\C=C\1 [SA0110225]	> 64	> 64	> 64	> 64	4 (≈ 5.99 µM)	8 (≈ 12 µM)	> 64	> 64	> 64	16 (≈ 24 µM)	32 (≈ 47.9 µM)	> 64	> 64	64 (≈ 95.8 µM)	64 (≈ 95.8 µM)	> 64	64 (≈ 95.8 µM)	32 (≈ 47.9 µM)	> 64	> 64	MIC (Gram-Negative Organisms; [15]): > 64 µg/mL
CC1=C\[C@@H](O)CC(=O)Cc2nc(co2)C(=O)N2CCC[C@@H]2C(=O)O[C@H]([C@H](C)COC(=O)Nc2cccnc2)[C@H](C)/C=C/C(=O)NC\C=C\1 [SA0110205]	> 64	> 64	> 64	> 64	8 (≈ 12.1 µM)	16 (≈ 24.1 µM)	> 64	> 64	> 64	32 (≈ 48.2 µM)	32 (≈ 48.2 µM)	> 64	> 64	> 64	> 64	> 64	64 (≈ 96.4 µM)	32 (≈ 48.2 µM)	> 64	> 64	MIC (Gram-Negative Organisms; [15]): > 64 µg/mL
CC1=C\[C@@H](O)CC(=O)Cc2nc(co2)C(=O)N2CCC[C@@H]2C(=O)O[C@H]([C@H](C)COC(=O)Nc2ccc(OC(F)(F)F)cc2)[C@H](C)/C=C/C(=O)NC\C=C\1 [SA0110195]	> 64	> 64	> 64	> 64	8 (≈ 10.7 µM)	8 (≈ 10.7 µM)	> 64	> 64	> 64	> 64	8 (≈ 10.7 µM)	> 64	16 (≈ 21.4 µM)	8 (≈ 10.7 µM)	16 (≈ 21.4 µM)	16 (≈ 21.4 µM)	> 64	> 64	> 64	> 64	MIC (Gram-Negative Organisms; [15]): > 64 µg/mL
CC1=C\[C@@H](O)CC(=O)Cc2nc(co2)C(=O)N2CCC[C@@H]2C(=O)O[C@H]([C@@H](C)COC(=O)Nc2ccccn2)[C@H](C)/C=C/C(=O)NC\C=C\1 [SA0110120]	> 64	> 64	> 64	32 (≈ 48.2 µM)	4 (≈ 6.03 µM)	8 (≈ 12.1 µM)	> 64	> 64	> 64	32 (≈ 48.2 µM)	32 (≈ 48.2 µM)	> 64	64 (≈ 96.4 µM)	32 (≈ 48.2 µM)	64 (≈ 96.4 µM)	> 64	64 (≈ 96.4 µM)	16 (≈ 24.1 µM)	> 64	> 64	–
CC1=C\[C@@H](O)C[C@@H](O)Cc2nc(co2)C(=O)N[C@H](C)C(=O)O[C@H](C(C)C)[C@H](C)/C=C/C(=O)NC\C=C\1 [madumycin II, Madumycin II, reference compound]	> 64	> 64	> 64	1 (≈ 1.99 µM)	2 (≈ 3.97 µM)	0.5 (≈ 0.993 µM)	> 64	> 64	> 64	1 (≈ 1.99 µM)	0.5 (≈ 0.993 µM)	> 64	8 (≈ 15.9 µM)	8 (≈ 15.9 µM)	8 (≈ 15.9 µM)	16 (≈ 31.8 µM)	8 (≈ 15.9 µM)	4 (≈ 7.94 µM)	> 64	> 64	–
CC1=C\[C@@H](O)CC(=O)Cc2nc(co2)C(=O)N2CCC[C@@H]2C(=O)O[C@H]([C@H](C)COC(=O)Nc2ccnc(Br)c2)[C@H](C)/C=C/C(=O)NC\C=C\1 [SA0110206]	> 64	> 64	> 64	16 (≈ 21.5 µM)	2 (≈ 2.69 µM)	2 (≈ 2.69 µM)	> 64	> 64	> 64	4 (≈ 5.39 µM)	8 (≈ 10.8 µM)	> 64	16 (≈ 21.5 µM)	16 (≈ 21.5 µM)	16 (≈ 21.5 µM)	32 (≈ 43.1 µM)	16 (≈ 21.5 µM)	8 (≈ 10.8 µM)	> 64	> 64	MIC (Gram-Negative Organisms; [15]): > 64 µg/mL
CC1=C\[C@@H](O)CC(=O)Cc2nc(co2)C(=O)N2CCC[C@@H]2C(=O)O[C@H]([C@H](C)COC(=O)Nc2ccccc2)[C@H](C)/C=C/C(=O)NC\C=C\1 [SA0110196]	> 64	> 64	> 64	32 (≈ 48.3 µM)	2 (≈ 3.02 µM)	8 (≈ 12.1 µM)	> 64	> 64	> 64	16 (≈ 24.1 µM)	16 (≈ 24.1 µM)	> 64	32 (≈ 48.3 µM)	16 (≈ 24.1 µM)	32 (≈ 48.3 µM)	64 (≈ 96.6 µM)	64 (≈ 96.6 µM)	32 (≈ 48.3 µM)	> 64	> 64	MIC (Gram-Negative Organisms; [15]): > 64 µg/mL
CC1=C\[C@@H](O)CC(=O)Cc2nc(co2)C(=O)N2CCC[C@@H]2C(=O)O[C@H]([C@@H](C)CN2CCC(N(C)C)CC2)[C@H](C)/C=C/C(=O)NC\C=C\1 [SA0110252]	> 64	> 64	> 64	> 64	> 64	> 64	> 64	> 64	> 64	> 64	> 64	> 64	> 64	> 64	> 64	> 64	> 64	> 64	> 64	> 64	MIC (Gram-Negative Organisms; [15]): > 64 µg/mL
COc1ccc(NC(=O)OC[C@@H](C)[C@H]2OC(=O)[C@H]3CCCN3C(=O)c3coc(n3)CC(=O)C[C@H](O)/C=C(C)/C=C/CNC(=O)/C=C/[C@H]2C)cc1 [SA0110185]	> 64	> 64	> 64	64 (≈ 92.4 µM)	2 (≈ 2.89 µM)	4 (≈ 5.77 µM)	> 64	> 64	> 64	16 (≈ 23.1 µM)	16 (≈ 23.1 µM)	> 64	32 (≈ 46.2 µM)	16 (≈ 23.1 µM)	16 (≈ 23.1 µM)	32 (≈ 46.2 µM)	32 (≈ 46.2 µM)	32 (≈ 46.2 µM)	> 64	> 64	MIC (Gram-Negative Organisms; [15]): > 64 µg/mL
C[C@H]1COc2c(N3CCN(C)CC3)c(F)cc3c(=O)c(C(=O)O)cn1c23 [levofloxacin]	2 (≈ 5.53 µM)	0.25 (≈ 0.692 µM)	0.015 (≈ 0.0415 µM)	–	–	–	0.03 (≈ 0.083 µM)	1 (≈ 2.77 µM)	1 (≈ 2.77 µM)	0.03 (≈ 0.083 µM)	4 (≈ 11.1 µM)	8 (≈ 22.1 µM)	0.25 (≈ 0.692 µM)	2 (≈ 5.53 µM)	0.12 (≈ 0.332 µM)	0.25 (≈ 0.692 µM)	> 8	0.5 (≈ 1.38 µM)	1 (≈ 2.77 µM)	> 8	MIC (Gram-Negative Organisms; [15]): 0.015 µg/mL (≈ 0.0415 µM)
